pIC50: −log10 of the molar value. Where two headings read alike, the source gives them in different places.

Drawing on patent publication US20230048132A1, “CYCLIN-DEPENDENT KINASE INHIBITORS” (SPV THERAPEUTICS INC., priority 2018, published 2023), this text covers IC50 for 20 compounds.

Assay in all cases: CDK inhibition assay (microfluidic LabChip, IC50 format)
Assay [1] addresses T1, CDK2-CYCLINA (Homo sapiens, UniProt P24941).
T1 construct: purchased Millipore
The format is biochemical. The following applies: Table 4a; read-out: CDK2 CyclinA IC50.

In assay [2] the target is T2, CDK6-CYCLIND3 (Homo sapiens, UniProt Q00534).
T2 construct: purchased Carna
Type of assay: biochemical. The following applies: read-out: CDK6 CyclinD3 IC50.

The target in assay [3] is CDK7 CyclinH (Homo sapiens, UniProt P50613). Type of assay: biochemical. The following applies: Table 4a.
In assay [4] the target is T3, CDK9-CYCLINT1 (Homo sapiens, UniProt P50750).
T3 construct: purchased Carna
Type of assay: biochemical. The following applies: Table 4a; read-out: CDK9 CyclinT1 IC50.

Assay [5] has as its target CDK4-CYCLIND1 (Homo sapiens, UniProt P11802). The following applies: a second value in parentheses for some compounds.
[6] abbreviates: CDK4 CyclinD1 IC50, Table 4b, lower part.

Sequence of CDK4-CYCLIND1 (P11802 whole entry): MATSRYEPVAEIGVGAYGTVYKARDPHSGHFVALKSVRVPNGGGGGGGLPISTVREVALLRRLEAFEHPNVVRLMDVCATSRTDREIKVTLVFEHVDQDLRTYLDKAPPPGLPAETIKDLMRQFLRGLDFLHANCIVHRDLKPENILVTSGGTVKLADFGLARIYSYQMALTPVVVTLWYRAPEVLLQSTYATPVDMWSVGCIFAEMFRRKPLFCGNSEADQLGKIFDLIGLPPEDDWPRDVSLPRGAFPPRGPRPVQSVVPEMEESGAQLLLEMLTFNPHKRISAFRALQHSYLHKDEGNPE
Sequence of CDK4-CYCLIND1 (P24385 whole entry partner): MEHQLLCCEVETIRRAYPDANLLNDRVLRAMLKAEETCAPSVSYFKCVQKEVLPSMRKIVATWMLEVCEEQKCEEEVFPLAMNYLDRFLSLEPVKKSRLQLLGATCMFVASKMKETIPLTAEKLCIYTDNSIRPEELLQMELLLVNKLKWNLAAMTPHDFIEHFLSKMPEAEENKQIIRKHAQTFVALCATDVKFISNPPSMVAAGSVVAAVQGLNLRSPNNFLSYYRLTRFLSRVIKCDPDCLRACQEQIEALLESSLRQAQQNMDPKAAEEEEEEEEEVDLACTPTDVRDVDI
Sequence of CDK7 CyclinH (P50613 whole entry): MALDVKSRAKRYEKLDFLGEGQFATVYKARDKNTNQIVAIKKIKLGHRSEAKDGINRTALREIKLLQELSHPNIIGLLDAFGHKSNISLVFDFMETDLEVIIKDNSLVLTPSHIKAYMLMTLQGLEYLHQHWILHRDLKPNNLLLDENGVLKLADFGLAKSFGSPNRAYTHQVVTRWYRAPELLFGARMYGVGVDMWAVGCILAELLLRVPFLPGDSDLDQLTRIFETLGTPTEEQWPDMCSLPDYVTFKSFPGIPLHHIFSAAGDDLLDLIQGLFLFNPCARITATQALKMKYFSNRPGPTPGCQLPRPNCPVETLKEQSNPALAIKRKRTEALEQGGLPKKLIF
Sequence of CDK7 CyclinH (P51946 whole entry partner): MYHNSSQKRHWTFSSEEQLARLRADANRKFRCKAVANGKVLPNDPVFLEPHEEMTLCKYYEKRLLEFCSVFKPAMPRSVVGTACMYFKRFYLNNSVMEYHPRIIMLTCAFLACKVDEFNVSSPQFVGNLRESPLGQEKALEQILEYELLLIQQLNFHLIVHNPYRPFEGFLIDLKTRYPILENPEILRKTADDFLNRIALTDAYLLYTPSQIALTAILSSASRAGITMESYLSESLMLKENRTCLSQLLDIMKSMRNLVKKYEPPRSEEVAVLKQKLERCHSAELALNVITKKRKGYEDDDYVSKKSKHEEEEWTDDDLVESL
Sequence of CDK7 CyclinH (P51948 whole entry partner): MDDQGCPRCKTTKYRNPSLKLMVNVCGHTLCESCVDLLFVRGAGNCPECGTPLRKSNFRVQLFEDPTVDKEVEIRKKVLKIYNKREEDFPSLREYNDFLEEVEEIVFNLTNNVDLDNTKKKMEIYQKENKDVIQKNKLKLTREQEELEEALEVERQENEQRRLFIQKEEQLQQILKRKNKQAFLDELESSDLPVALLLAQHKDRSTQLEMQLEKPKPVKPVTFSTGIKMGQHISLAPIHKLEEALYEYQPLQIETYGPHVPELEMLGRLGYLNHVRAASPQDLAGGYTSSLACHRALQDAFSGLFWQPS
T2 sequence (Q00534 whole entry): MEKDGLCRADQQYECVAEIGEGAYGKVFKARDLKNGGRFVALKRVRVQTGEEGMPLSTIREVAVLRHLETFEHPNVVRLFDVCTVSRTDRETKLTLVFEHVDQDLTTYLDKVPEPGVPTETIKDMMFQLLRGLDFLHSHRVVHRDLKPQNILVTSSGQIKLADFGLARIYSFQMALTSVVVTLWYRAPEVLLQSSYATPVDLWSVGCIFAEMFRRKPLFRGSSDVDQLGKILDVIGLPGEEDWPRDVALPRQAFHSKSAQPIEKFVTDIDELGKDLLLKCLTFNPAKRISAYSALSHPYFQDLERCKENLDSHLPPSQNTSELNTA
T2 sequence (P30281 whole entry partner): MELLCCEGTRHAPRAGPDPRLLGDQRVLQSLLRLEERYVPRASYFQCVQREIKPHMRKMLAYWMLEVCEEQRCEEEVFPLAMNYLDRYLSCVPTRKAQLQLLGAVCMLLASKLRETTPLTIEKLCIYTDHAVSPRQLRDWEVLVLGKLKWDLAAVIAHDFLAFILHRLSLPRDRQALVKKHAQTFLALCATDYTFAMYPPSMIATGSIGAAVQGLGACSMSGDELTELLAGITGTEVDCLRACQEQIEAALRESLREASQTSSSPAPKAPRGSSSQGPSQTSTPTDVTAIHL
T3 sequence (P50750 whole entry): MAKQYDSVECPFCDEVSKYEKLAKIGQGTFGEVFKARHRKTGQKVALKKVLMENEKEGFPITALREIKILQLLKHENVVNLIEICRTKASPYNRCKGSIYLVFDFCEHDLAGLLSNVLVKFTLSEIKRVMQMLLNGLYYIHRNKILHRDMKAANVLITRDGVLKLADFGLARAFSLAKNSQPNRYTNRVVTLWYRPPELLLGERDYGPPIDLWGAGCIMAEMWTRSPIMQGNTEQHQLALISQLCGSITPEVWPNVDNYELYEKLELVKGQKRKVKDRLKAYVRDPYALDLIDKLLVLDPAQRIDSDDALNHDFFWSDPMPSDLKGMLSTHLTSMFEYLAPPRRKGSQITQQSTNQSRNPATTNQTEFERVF
T3 sequence (O60563 whole entry partner): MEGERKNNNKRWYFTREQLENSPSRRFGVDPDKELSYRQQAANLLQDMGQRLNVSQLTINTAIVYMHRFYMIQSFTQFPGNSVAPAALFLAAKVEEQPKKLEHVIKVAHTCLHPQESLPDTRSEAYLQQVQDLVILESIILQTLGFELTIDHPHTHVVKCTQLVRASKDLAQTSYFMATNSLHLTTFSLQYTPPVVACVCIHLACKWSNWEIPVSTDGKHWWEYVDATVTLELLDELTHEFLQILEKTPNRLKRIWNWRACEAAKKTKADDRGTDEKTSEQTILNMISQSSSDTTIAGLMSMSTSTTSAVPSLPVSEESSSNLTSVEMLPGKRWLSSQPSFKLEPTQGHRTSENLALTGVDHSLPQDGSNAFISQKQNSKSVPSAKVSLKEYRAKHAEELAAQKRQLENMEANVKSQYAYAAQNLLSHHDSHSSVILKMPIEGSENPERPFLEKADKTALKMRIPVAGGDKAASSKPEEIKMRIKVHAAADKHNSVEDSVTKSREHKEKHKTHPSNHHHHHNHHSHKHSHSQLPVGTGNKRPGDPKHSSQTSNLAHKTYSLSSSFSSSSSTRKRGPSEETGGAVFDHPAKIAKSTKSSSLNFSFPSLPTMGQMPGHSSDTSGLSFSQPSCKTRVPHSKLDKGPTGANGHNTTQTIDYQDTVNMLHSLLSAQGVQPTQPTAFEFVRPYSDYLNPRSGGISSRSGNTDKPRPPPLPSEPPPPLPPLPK

Regarding `CN1CCN(c2ccc(Nc3ncc4c(n3)N(C3CCCC3)C(=O)[C@]3(CCNC3=O)C4)c(F)c2)CC1` [Example D147, (S)-8-cyclopentyl-2-((2-fluoro-4-(4-methylpiperazin-1-yl)phenyl)amino)-5,8-dihydro-7H-spiro[pyrido[2,3-d]pyrimidine-6,3′-pyrrolidine]-2′,7-dione], the pIC50 (in general, the IC50 on a negative log10 scale, so that one unit is a factor of ten) in assay [1] was 6.02; in assay [2] (Table 4a), 6.73; in assay [3] it was 5.37; in assay [4], 6.29; in assay [5] (CDK4 CyclinD1 IC50, Table 4a), 7.14.
With `O=C1NCC[C@@]12Cc1cnc(Nc3ccc(N4CCNCC4)nc3)nc1N(C1CCCC1)C2=O` [Example D149, (S)-8-cyclopentyl-2-((6-(piperazin-1-yl)pyridin-3-yl)amino)-5,8-dihydro-7H-spiro[pyrido[2,3-d]pyrimidine-6,3′-pyrrolidine]-2′,7-dione], the pIC50 is 7.45 in assay [1]; 8.55 in assay [2] (Table 4a); 6.47 in assay [3]; 8.12 in assay [4]; 8.91 in assay [5] (CDK4 CyclinD1 IC50, Table 4a).
With `CN1CCN(c2ccc(Nc3ncc4c(n3)N(C3CCCC3)C(=O)[C@]3(CCNC3=O)C4)cn2)CC1` [Example D150, (S)-8-cyclopentyl-2-((6-(4-methylpiperazin-1-yl)pyridin-3-yl)amino)-5,8-dihydro-7H-spiro[pyrido[2,3-d]pyrimidine-6,3′-pyrrolidine]-2′,7-dione], the pIC50 was 7.28 in assay [1]; 8.63 in assay [2] (Table 4a); 6.40 in assay [3]; 8.16 in assay [4]; 8.94 in assay [5] (CDK4 CyclinD1 IC50, Table 4a).
For `CC(C)N1CCN(c2ccc(Nc3ncc4c(n3)N(C3CCCC3)C(=O)[C@]3(CCNC3=O)C4)cn2)CC1` [Example D151, (S)-8-cyclopentyl-2-((6-(4-isopropylpiperazin-1-yl)pyridin-3-yl)amino)-5,8-dihydro-7H-spiro[pyrido[2,3-d]pyrimidine-6,3′-pyrrolidine]-2′,7-dione], the pIC50 in assay [2] (Table 4b, lower part) was 8.55; in assay [5] (setting [6]) it was 8.76.
As for `O=C1NCC[C@@]12Cc1cnc(Nc3ccc(N4CCNCC4)cn3)nc1N(C1CCCC1)C2=O` [Example D152, (S)-8-cyclopentyl-2-((5-(piperazin-1-yl)pyridin-2-yl)amino)-5,8-dihydro-7H-spiro[pyrido[2,3-d]pyrimidine-6,3′-pyrrolidine]-2′,7-dione], the pIC50 was 5.77 in assay [1]; 8.79 in assay [2] (Table 4a); 4.72 in assay [3]; 6.92 in assay [4]; 8.93 in assay [5] (CDK4 CyclinD1 IC50, Table 4a).
On the same counts, the results for `CN1CCN(c2ccc(Nc3ncc4c(n3)N(C3CCCC3)C(=O)[C@]3(CCNC3=O)C4)nc2)CC1` [Example D153, (S)-8-cyclopentyl-2-((5-(4-methylpiperazin-1-yl)pyridin-2-yl)amino)-5,8-dihydro-7H-spiro[pyrido[2,3-d]pyrimidine-6,3′-pyrrolidine]-2′,7-dione] are 5.61, 8.44, 4.74, 6.50 and 8.53.
For `CCN1CCN(Cc2ccc(Nc3ncc4c(n3)N(C3CCCC3)C(=O)[C@]3(CCNC3=O)C4)nc2)CC1` [Example D155, (S)-8-cyclopentyl-2-((5-((4-ethylpiperazin-1-yl)methyl)pyridin-2-yl)amino)-5,8-dihydro-7H-spiro[pyrido[2,3-d]pyrimidine-6,3′-pyrrolidine]-2′,7-dione] the same measures were 5.46, 8.07, 4.83, 5.93 and 8.21.
For `Cc1cc(Nc2ncc3c(n2)N(C2CCCC2)C(=O)[C@]2(CCNC2=O)C3)ccc1N1CCNCC1` [Example D156, (S)-8-cyclopentyl-2-((3-methyl-4-(piperazin-1-yl)phenyl)amino)-5,8-dihydro-7H-spiro[pyrido[2,3-d]pyrimidine-6,3′-pyrrolidine]-2′,7-dione] the same measures were 7.70, 8.64, 6.78, 8.41 and 9.04.
For `Cc1cc(Nc2ncc3c(n2)N(C2CCCC2)C(=O)[C@]2(CCNC2=O)C3)ccc1N1CCN(C)CC1` [Example D157, (S)-8-cyclopentyl-2-((3-methyl-4-(4-methylpiperazin-1-yl)phenyl)amino)-5,8-dihydro-7H-spiro[pyrido[2,3-d]pyrimidine-6,3′-pyrrolidine]-2′,7-dione], the pIC50 in assay [1] is 7.74; in assay [2] (Table 4a) it was 8.82; in assay [3] it was 6.79; in assay [4], 8.44; in assay [5] (CDK4 CyclinD1 IC50, Table 4a) it was 9.04.
On the same counts, the results for `COc1cc(Nc2ncc3c(n2)N(C2CCCC2)C(=O)[C@]2(CCNC2=O)C3)ccc1N1CCNCC1` [Example D159, (S)-8-cyclopentyl-2-((3-methoxy-4-(piperazin-1-yl)phenyl)amino)-5,8-dihydro-7H-spiro[pyrido[2,3-d]pyrimidine-6,3′-pyrrolidine]-2′,7-dione] are 7.46, 8.35, 6.50, 8.13 and 8.79.
`COc1cc(N2CCN(C)CC2)ccc1Nc1ncc2c(n1)N(C1CCCC1)C(=O)[C@]1(CCNC1=O)C2` [Example D166, (S)-8-cyclopentyl-2-((2-methoxy-4-(4-methylpiperazin-1-yl)phenyl)amino)-5,8-dihydro-7H-spiro[pyrido[2,3-d]pyrimidine-6,3′-pyrrolidine]-2′,7-dione]: the pIC50 was 5.73 in assay [1], 7.10 in assay [2] (Table 4a), 4.86 in assay [3] and 6.51 in assay [4].
For `O=C1NCC[C@@]12Cc1cnc(Nc3ccc(-c4cn[nH]c4)cc3)nc1N(C1CCCC1)C2=O` [Example D168, (S)-2-((4-(1H-pyrazol-4-yl)phenyl)amino)-8-cyclopentyl-5,8-dihydro-7H-spiro[pyrido[2,3-d]pyrimidine-6,3′-pyrrolidine]-2′,7-dione] the same measures were 7.26, 7.52, 5.51 and 8.19.
On the same counts, the results for `Cn1cc(-c2ccc(Nc3ncc4c(n3)N(C3CCCC3)C(=O)[C@]3(CCNC3=O)C4)cc2)cn1` [Example D169, (S)-8-cyclopentyl-2-((4-(1-methyl-1H-pyrazol-4-yl)phenyl)amino)-5,8-dihydro-7H-spiro[pyrido[2,3-d]pyrimidine-6,3′-pyrrolidine]-2′,7-dione] are 7.47, 8.03, 5.55 and 8.53.
`O=C1NCC[C@@]12Cc1cnc(Nc3ccc(OCCN4CCCC4)nc3)nc1N(C1CCCC1)C2=O` [Example D191, (S)-8-cyclopentyl-2-((6-(2-(pyrrolidin-1-yl)ethoxy)pyridin-3-yl)amino)-5,8-dihydro-7H-spiro[pyrido[2,3-d]pyrimidine-6,3′-pyrrolidine]-2′,7-dione]: the pIC50 in assay [2] (Table 4b, lower part) was 7.95; in assay [5] (setting [6]), 8.20.
On the same counts, the results for `O=C1NCC[C@@]12Cc1cnc(Nc3ccc(OCCN4CCCCC4)nc3)nc1N(C1CCCC1)C2=O` [Example D192, (S)-8-cyclopentyl-2-((6-(2-(piperidin-1-yl)ethoxy)pyridin-3-yl)amino)-5,8-dihydro-7H-spiro[pyrido[2,3-d]pyrimidine-6,3′-pyrrolidine]-2′,7-dione] are 8.07 and 8.34.
On the same counts, the results for `O=C1NCC[C@@]12Cc1cnc(Nc3ccc(N4CCC(N5CCOCC5)CC4)nc3)nc1N(C1CCCC1)C2=O` [Example D193, (S)-8-cyclopentyl-2-((6-(4-morpholinopiperidin-1-yl)pyridin-3-yl)amino)-5,8-dihydro-7H-spiro[pyrido[2,3-d]pyrimidine-6,3′-pyrrolidine]-2′,7-dione] are 8.63 and 8.81.
On the same counts, the results for `CC(C)N1CCN(c2ccc(Nc3ncc4c(n3)N(C35CC(C3)C5)C(=O)[C@]3(CCNC3=O)C4)cc2F)CC1` [Example D194, (S)-8-(bicyclo[1.1.1]pentan-1-yl)-2-((3-fluoro-4-(4-isopropylpiperazin-1-yl)phenyl)amino)-5,8-dihydro-7H-spiro[pyrido[2,3-d]pyrimidine-6,3′-pyrrolidine]-2′,7-dione] are 7.51 and 7.76.
On to `CC(C)n1cc(-c2ccc(Nc3ncc4c(n3)N(C3CCCC3)C(=O)[C@]3(CCNC3=O)C4)cc2)cn1` [Example D195, (S)-8-cyclopentyl-2-((4-(1-isopropyl-1H-pyrazol-4-yl)phenyl)amino)-5,8-dihydro-7H-spiro[pyrido[2,3-d]pyrimidine-6,3′-pyrrolidine]-2′,7-dione], for which the pIC50 is 7.47 in assay [2] (Table 4b, lower part) and 7.64 in assay [5] (setting [6]).
As to `O=C1NCC[C@]12Cc1cnc(Nc3ccc(N4CCNCC4)c(F)c3)nc1N(C13CC(C1)C3)C2=O` [Example D196, (R)-8-(bicyclo[1.1.1]pentan-1-yl)-2-((3-fluoro-4-(piperazin-1-yl)phenyl)amino)-5,8-dihydro-7H-spiro[pyrido[2,3-d]pyrimidine-6,3′-pyrrolidine]-2′,7-dione], the pIC50 in assay [2] (Table 4b, lower part) is 5.62; in assay [5] (setting [6]), 5.90.
As for `CN1CCN(c2ccc(Nc3ncc4c(n3)N(C35CC(C3)C5)C(=O)[C@@]3(CCNC3=O)C4)cc2F)CC1` [Example D197, (R)-8-(bicyclo[1.1.1]pentan-1-yl)-2-((3-fluoro-4-(4-methylpiperazin-1-yl)phenyl)amino)-5,8-dihydro-7H-spiro[pyrido[2,3-d]pyrimidine-6,3′-pyrrolidine]-2′,7-dione], the pIC50 in assay [2] (Table 4b, lower part) is 5.27; in assay [5] (setting [6]) it was 5.65.
